T/C data for 22 compounds are collected here from PubChem BioAssay AID330 (DTP/NCI, 2004).

The experiment has as its system P388 leukemia ip, CD2F1 mice, survival T/C. Briefly: NCI In Vivo Anticancer Drug Screen. Data for tumor model P388 Leukemia (intraperitoneal) in CD2F1 (CDF1) mice. The note with it: endpoint: median survival time, higher = longer survival. In outline: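 Mice carrying the transplanted tumor received test compound or vehicle. Survival was recorded in each group, and the value is the treated-group measurement divided by that of the vehicle-treated control group.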

Setting [1] is: dose: 50.0 mg/kg/injection, schedule: Q01DX005 (ip), vehicle: saline with Tween-80.
The mark [2] stands for this setting: dose: 100.0 mg/kg/injection, schedule: Q01DX005 (ip), vehicle: saline with Tween-80.
[3] abbreviates: dose: 50.0 mg/kg/injection, schedule: Q01DX005 (ip), vehicle: Klucel (hydroxypropylcellulose) (HPC).
The mark [4] stands for this setting: dose: 100.0 mg/kg/injection, schedule: Q01DX005 (ip), vehicle: Klucel (hydroxypropylcellulose) (HPC).
Setting [5] is: dose: 60.0 mg/kg/injection, schedule: Q01DX005 (ip), vehicle: saline with Tween-80.
[6] abbreviates: dose: 120.0 mg/kg/injection, schedule: Q01DX005 (ip), vehicle: saline with Tween-80.
The mark [7] stands for this setting: dose: 240.0 mg/kg/injection, schedule: Q01DX005 (ip), vehicle: saline with Tween-80.
Setting [8] is: dose: 50.0 mg/kg/injection, schedule: Q01DX009 (ip), vehicle: saline.
Setting [9] is: dose: 100.0 mg/kg/injection, schedule: Q01DX009 (ip), vehicle: saline.
[10] abbreviates: dose: 200.0 mg/kg/injection, schedule: Q01DX009 (ip), vehicle: saline.

Several values for one entry are separate records, joined by “and”; a condition that tells them apart may be missing. Equal entries are not always repeated. Toxic doses and inconclusive results are not listed.

As to `CC(=O)C1=C(O)C(=O)N(c2ccccc2)C1=O`, the T/C under setting [1] is 97 % of control; the T/C under setting [2] was 102 % of control; the T/C (dose: 200.0 mg/kg/injection, schedule: Q01DX005 (ip), vehicle: saline with Tween-80) was 100 % of control.

Consider `O=c1c2ccccc2c2nc3ccccc3nc2c2ccccc12`, for which the T/C by setting is: (dose: 25.0 mg/kg/injection, schedule: Q01DX005 (ip), vehicle: saline with Tween-80) 91 % of control; under setting [1], 97 % of control; under setting [2], 96 % of control.

With `CC1=N/C(=C\c2cccc(Br)c2)C(=O)O1`, the T/C was 98 % of control under setting [3]; 98 % of control under setting [4]; 98 % of control (dose: 200.0 mg/kg/injection, schedule: Q01DX005 (ip), vehicle: Klucel (hydroxypropylcellulose) (HPC)).

`O=C(NC(Cc1ccc(O)cc1)C(=O)O)C(=O)c1c[nH]c2ccccc12` (configuration not stated): the T/C under setting [5] was 96 % of control, the T/C under setting [6] was 97 % of control and the T/C under setting [7] was 100 % of control.

Take `COC1=CC(=O)C=C(CO)C1=O`: the T/C by setting is: (dose: 1.56 mg/kg/injection, schedule: Q01DX009 (ip), vehicle: saline) 104 % of control; (dose: 3.12 mg/kg/injection, schedule: Q01DX009 (ip), vehicle: saline) 107 % of control; (dose: 6.25 mg/kg/injection, schedule: Q01DX009 (ip), vehicle: saline) 111 % of control and 94 % of control.

Turning to `O=C(CCCCCO)c1nc2ccccc2s1`, the T/C reads like this: (dose: 60.0 mg/kg/injection, schedule: Q01DX005 (ip), vehicle: Klucel (hydroxypropylcellulose) (HPC)) 100 % of control; (dose: 120.0 mg/kg/injection, schedule: Q01DX005 (ip), vehicle: Klucel (hydroxypropylcellulose) (HPC)) 102 % of control; (dose: 240.0 mg/kg/injection, schedule: Q01DX005 (ip), vehicle: Klucel (hydroxypropylcellulose) (HPC)) 94 % of control.

In the case of `Cc1c(C)c(=O)c2cc3c(=O)ccc(=O)c3cc2c1=O`, the T/C is, setting by setting: (dose: 12.5 mg/kg/injection, schedule: Q04DX003 (ip), vehicle: Klucel (hydroxypropylcellulose) (HPC)) 101 % of control; (dose: 25.0 mg/kg/injection, schedule: Q04DX003 (ip), vehicle: Klucel (hydroxypropylcellulose) (HPC)) 96 % of control; (dose: 50.0 mg/kg/injection, schedule: Q04DX003 (ip), vehicle: Klucel (hydroxypropylcellulose) (HPC)) 103 % of control.

Take `OC(c1ccccc1)(c1ccccc1)c1ccc(C[P+](c2ccccc2)(c2ccccc2)c2ccccc2)cc1`: the T/C was 101 % of control (dose: 1.56 mg/kg/injection, schedule: Q01DX009 (ip), vehicle: other) and 117 % of control (dose: 3.13 mg/kg/injection, schedule: Q01DX009 (ip), vehicle: other).

With `Cc1[nH]c2ccc(N(C)C)cc2c(=O)c1CN(C)Cc1c(C)[nH]c2ccc(N(C)C)cc2c1=O`, the T/C by setting is: under setting [5], 99 % of control; under setting [6], 100 % of control; under setting [7], 100 % of control.

As for `CCOC(=O)C(C)(C)Oc1ccc(N=[N+]=[N-])cc1`, the T/C runs as follows: under setting [5], 100 % of control; under setting [6], 104 % of control; under setting [7], 109 % of control.

As to `CC1=NN(c2ccccc2)C(=O)C1N=Nc1cc(Cl)cc(S(=O)(=O)O)c1O` (configuration not stated), the T/C is 96 % of control under setting [8] and 97 % of control under setting [9].

For the compound `CCCn1c(C)nc2c(N)cc(Cl)cc21`, the T/C was 99 % of control (dose: 12.5 mg/kg/injection, schedule: Q01DX005 (ip), vehicle: Klucel (hydroxypropylcellulose) (HPC)); 95 % of control (dose: 25.0 mg/kg/injection, schedule: Q01DX005 (ip), vehicle: Klucel (hydroxypropylcellulose) (HPC)); 103 % of control under setting [3]; 105 % of control under setting [4].

Turning to `CCCCCSc1nc2ccc(NCN3C(=O)C4C5C=CC(C5)C4C3=O)cc2s1` (configuration not stated), the T/C is 98 % of control (dose: 50.0 mg/kg/injection, schedule: Q01DX009 (ip), vehicle: Klucel (hydroxypropylcellulose) (HPC)); 86 % of control (dose: 100.0 mg/kg/injection, schedule: Q01DX009 (ip), vehicle: Klucel (hydroxypropylcellulose) (HPC)); 92 % of control (dose: 200.0 mg/kg/injection, schedule: Q01DX009 (ip), vehicle: Klucel (hydroxypropylcellulose) (HPC)).

On to `CCN(CC)C(=O)c1ccncc1C(=O)c1ccncc1`, for which the T/C reads like this: (dose: 60.0 mg/kg/injection, schedule: Q01DX005 (ip), vehicle: saline) 94 % of control; (dose: 120.0 mg/kg/injection, schedule: Q01DX005 (ip), vehicle: saline) 100 % of control; (dose: 240.0 mg/kg/injection, schedule: Q01DX005 (ip), vehicle: saline) 100 % of control.

`CN(/N=C/c1ccccc1)c1nnnn1-c1ccccc1`: the T/C runs as follows: (dose: 50.0 mg/kg/injection, schedule: Q01DX005 (ip), vehicle: saline + Tween-80 + alcohol) 103 % of control; (dose: 100.0 mg/kg/injection, schedule: Q01DX005 (ip), vehicle: saline + Tween-80 + alcohol) 97 % of control; (dose: 200.0 mg/kg/injection, schedule: Q01DX005 (ip), vehicle: saline + Tween-80 + alcohol) 89 % of control.

For `COC(=O)CCC(=O)C(C#N)c1ccc(Cl)c(Cl)c1` (configuration not stated), the T/C by setting is: under setting [5], 101 % of control; under setting [6], 101 % of control.

With `CC(C)CCCCC(O)C1C(=O)OCC1CO` (configuration not stated), the T/C is 101 % of control (dose: 7.25 mg/kg/injection, schedule: Q01DX005 (ip), vehicle: distilled water + alcohol); 104 % of control (dose: 14.5 mg/kg/injection, schedule: Q01DX005 (ip), vehicle: distilled water + alcohol); 111 % of control (dose: 29.0 mg/kg/injection, schedule: Q01DX005 (ip), vehicle: distilled water + alcohol); 105 % of control (dose: 58.0 mg/kg/injection, schedule: Q01DX005 (ip), vehicle: distilled water + alcohol).

For the compound `NC(Cc1cccc(NP(=S)(N2CC2)N2CC2)c1)C(=O)O` (configuration not stated), the T/C reads like this: (dose: 12.5 mg/kg/injection, schedule: Q04DX003 (ip), vehicle: saline) 109 % of control; (dose: 25.0 mg/kg/injection, schedule: Q04DX003 (ip), vehicle: saline) 118 % of control; under setting [8], 159 % of control; (dose: 50.0 mg/kg/injection, schedule: Q04DX003 (ip), vehicle: saline with Tween-80) 103 % of control; (dose: 75.0 mg/kg/injection, schedule: Q04DX003 (ip), vehicle: saline with Tween-80) 92 % of control; under setting [9], 181 % of control. Moreover, the T/C was 183 % of control (dose: 100.0 mg/kg/injection, schedule: Q04DX003 (ip), vehicle: saline); 209 % of control under setting [10]; 225 % of control (dose: 200.0 mg/kg/injection, schedule: Q04DX003 (ip), vehicle: saline); 195 % of control (dose: 264.0 mg/kg/injection, schedule: Q04DX003 (ip), vehicle: saline); 245 % of control and 250 % of control (dose: 400.0 mg/kg/injection, schedule: Q04DX003 (ip), vehicle: saline).

Turning to `CCOC(=O)c1oc2cc(O)ccc2c(=O)c1-c1ccc(OC)c(OC)c1`, the T/C under setting [5] was 96 % of control, the T/C under setting [6] is 87 % of control and the T/C under setting [7] is 86 % of control.

For `CC(C)COC(=O)N1c2ccccc2C=CC1OCC(C)C` (configuration not stated), the T/C reads like this: (dose: 1.56 mg/kg/injection, schedule: Q01DX005 (ip), vehicle: Klucel (hydroxypropylcellulose) (HPC)) 104 % of control; (dose: 3.12 mg/kg/injection, schedule: Q01DX005 (ip), vehicle: Klucel (hydroxypropylcellulose) (HPC)) 100 % of control; (dose: 6.25 mg/kg/injection, schedule: Q01DX005 (ip), vehicle: Klucel (hydroxypropylcellulose) (HPC)) 104 % of control; (dose: 6.25 mg/kg/injection, schedule: Q01DX005 (ip), vehicle: saline with Tween-80) 109 % of control; (dose: 12.5 mg/kg/injection, schedule: Q01DX005 (ip), vehicle: saline with Tween-80) 112 % of control.

For `CC1CCN(P(=O)(N(C)C)N(C)C)CC1`, the T/C under setting [8] is 98 % of control, the T/C under setting [9] is 96 % of control and the T/C under setting [10] is 88 % of control.

On to `CCCCNC(c1ccc(N(CC)CC)cc1)C(Cl)(Cl)Cl` (configuration not stated), for which the T/C by setting is: (dose: 50.0 mg/kg/injection, schedule: Q01DX005 (ip), vehicle: saline) 105 % of control and 106 % of control; (dose: 50.0 mg/kg/injection, schedule: Q01DX005 (ip), vehicle: water) 100 % of control; (dose: 100.0 mg/kg/injection, schedule: Q01DX005 (ip), vehicle: saline) 108 % of control and 116 % of control; (dose: 100.0 mg/kg/injection, schedule: Q01DX005 (ip), vehicle: water) 93 % of control; (dose: 200.0 mg/kg/injection, schedule: Q01DX005 (ip), vehicle: saline) 110 % of control.
